Source: patent US20070224155A1, “Cleansing compositions and methods of reducing skin irritation” (ACCESS BUSINESS GROUP INTERNATIONAL, LLC, priority 2006, published 2007)

System: IL-1 alpha
Assay: IL-1 alpha assay: ELISA of IL-1α secreted by fibroblast/keratinocyte co-cultures exposed to a surfactant irritant with or without mildness agent
Format: cell-based, human
Conditions: hand dishwashing detergent; for Percent IL-1 α Reduction AVG: average of 1%, 0.1% and 0.01%
Source text: IL-1 alpha is one cytokine often released near the beginning of the inflammation cascade, which ultimately leads to a human biological response resulting in visible and/or perceptual signs of irritation. Accordingly, by reducing the initial response to an irritant, such as a surfactant, the ultimate damaging reaction can be reduced, prevented, and/or eliminated.
The procedure for conducting IL-1 alpha assays is as follows: Co-cultures of fibroblasts and keratinocytes, the primary cell types found in skin, are established using 100,000 fibroblasts and 200,000 keratinocytes per well. These types of cells are those found in the outer layers of the skin exposed to detergent during every day use. An irritant, for example the surfactant package used in a dish detergent (Example 1 below), is then applied to the coculture wells to initiate the production and secretion of pro-inflammatory cytokines by the cells. One such cytokine is human interleukin-1 alpha or IL-1α. In the body, this protein is a key mediator of the host response to infections and various inflammatory challenges. Once produced, IL-1α stimulates production of other pro-inflammatory cytokines and bioactive molecules. Together, these biological molecules send the message that something is wrong and the keratinocytes and fibroblasts need help. This is called the inflammatory response.
The amount of secreted IL-1α is directly related to the intensity of the inflammatory response. In vitro, the concentration of IL-1α secreted by the co-culture cells in response to the irritant can be measured via a precise laboratory technique known as an Enzyme Linked Immuno-Sorbent Assay or ELISA. Thus, to test botanical materials for mildness, a lessening of IL-1α secretion, the mildness agents were added with the chemical irritant. When a reduction in IL-1α expression was observed, the mildness agents were successful. Theoretically, there are several mechanisms by which this could have been achieved at the cellular level. Without wishing to be bound to a particular theory or in any way limit the scope of the appended claims or their equivalents, it is presently believed that these mechanisms may include one or more of the following: the mildness agent could block the transcription of the DNA to RNA, translation of the RNA to protein, and/or release of the IL-1α from the cells. […] The mildness agent may also have stopped the cascade after the irritant works on the cell. Whatever the mechanism, the net result is the same. There is less IL-1α released by the cells which correlates to inhibition of events in the inflammatory cascade and ultimately, less inflammation.
These were prepared using a serial dilution technique: 1.0 g botanical was mixed well with 99.0 g dish detergent to give the 1.0% formulation; next, 10.0 g of the 1.0% solution was mixed well with 90.0 g of the dish detergent to give the 0.1% formulation; finally, 10.0 g of the 0.1% solution was mixed well with 90.0 g of the dish detergent to give the 0.01% formulation.

[1] = botanical concentration 0.01% by weight
[2] = botanical concentration 0.1% by weight
[3] = botanical concentration 1% by weight

O=C(O)c1ccccc1O.O[SiH2]O [D.S.B.C., silanediol salicylate]
Percent IL-1 α Reduction AVG: 12.42%
Percent IL-1 α Reduction [1]: 7.46%
Percent IL-1 α Reduction [2]: 13.07%
Percent IL-1 α Reduction [3]: 16.74%

N[C@@H](CCC(=O)O)C(=O)NCCc1c[nH]c2ccccc12 [GLISTIN, glutaurylamidoethyl indole]
Percent IL-1 α Reduction AVG: 22.63%
Percent IL-1 α Reduction [1]: 18.50%
Percent IL-1 α Reduction [2]: 31.80%
Percent IL-1 α Reduction [3]: 17.60%
